{"source": "patent US20190142718A1", "about": "“NOVEL USE” (DSM IP ASSETS B.V., priority 2017, published 2019)", "experiment_in_all_cases": "Antimicrobial efficacy, challenge test in analogy to NF EN ISO11930", "key": {"C. albicans": {"test_system": "C. albicans", "type": "cell-based, Candida albicans", "description": "(§1) The antimicrobial efficacy is assessed in analogy to the regulatory challenge test method (NF EN IS011930). Thus, a solution of 0.2 wt.-% of phytantriol in a physiological serum with 0.85 wt.-% NaCl supplemented with 10 wt.-% ethanol was prepared. A control was also prepared under sterile conditions based on a serum with 0.85 wt.-% NaCl and 10 wt.-% ethanol.\n(§2) The control as well as the phytantriol solution were deposed in 96-deep well plates (1.6 ml/well). The wells were contaminated with the respective bacterial or the fungal strains as outlined in table 1 at 2.5*10^5 to 5.6*10^5 cfu/ml for the bacteria and 1*10^4 to 2.5*10^4 cfu/ml for the fungi to obtain the initial contamination as outlined in table 1. After the contamination, each well was thoroughly mixed to ensure a homogeneous distribution of the microorganism. Then each plate was incubated at 22° C. for 24h. The counting of the (remaining) population was carried out 24h after contamination."}, "P. Acnes": {"test_system": "P. Acnes", "type": "cell-based, Propionibacterium acnes", "description": "as §1, §2"}, "S. aureus": {"test_system": "S. aureus", "type": "cell-based, Staphylococcus aureus", "description": "as §1, §2"}, "M. furfur": {"test_system": "M. furfur", "type": "cell-based, Malassezia furfur", "description": "as §1, §2"}, "S. epidermidis": {"test_system": "S. epidermidis", "type": "cell-based, Staphylococcus epidermidis", "description": "as §1, §2"}, "A. brasiliensis": {"test_system": "A. brasiliensis", "type": "cell-based, Aspergillus brasiliensis", "description": "as §1, §2"}}, "data": [{"smiles": "CC(C)CCCC(C)CCCC(C)CCCC(C)(O)C(O)CO", "note": "(stereo not drawn) [Phytantriol, 3,7,11,15-tetramethyl-hexadecane-1,2,3-triol]", "values": [{"measurement": "colony counts 24 h", "setting": "C. albicans; 0.2 wt.-% phytantriol in 0.85 wt.-% NaCl serum with 10 wt.-% ethanol, 22° C., 24 h after contamination, 0 h count 25000, control 24 h 5000", "result": 1000, "unit": "cfu/ml"}, {"measurement": "antimicrobial effect", "setting": "C. albicans; against Candida albicans, 0.2 wt.-%, 24 h", "result": "significant antimicrobial effect"}, {"measurement": "colony counts 24 h", "setting": "P. Acnes; 0.2 wt.-% phytantriol in 0.85 wt.-% NaCl serum with 10 wt.-% ethanol, 22° C., 24 h after contamination, 0 h count 310000, control 24 h 30000", "result": 28000, "unit": "cfu/ml"}, {"measurement": "antimicrobial effect", "setting": "P. Acnes; against Propionibacterium acnes, 0.2 wt.-%, 24 h", "result": "significant antimicrobial effect"}, {"measurement": "colony counts 24 h", "setting": "S. aureus; 0.2 wt.-% phytantriol in 0.85 wt.-% NaCl serum with 10 wt.-% ethanol, 22° C., 24 h after contamination, 0 h count 250000, control 24 h 280000", "result": 0, "unit": "cfu/ml"}, {"measurement": "antimicrobial effect", "setting": "S. aureus; against Staphylococcus aureus, 0.2 wt.-%, 24 h", "result": "significant antimicrobial effect"}, {"measurement": "colony counts 24 h", "setting": "M. furfur; 0.2 wt.-% phytantriol in 0.85 wt.-% NaCl serum with 10 wt.-% ethanol, 22° C., 24 h after contamination, 0 h count 4000, control 24 h 775", "result": 0, "unit": "cfu/ml"}, {"measurement": "antimicrobial effect", "setting": "M. furfur; against Malassezia furfur, 0.2 wt.-%, 24 h", "result": "significant antimicrobial effect"}, {"measurement": "colony counts 24 h", "setting": "S. epidermidis; 0.2 wt.-% phytantriol in 0.85 wt.-% NaCl serum with 10 wt.-% ethanol, 22° C., 24 h after contamination, 0 h count 560000, control 24 h 28000", "result": 0, "unit": "cfu/ml"}, {"measurement": "antimicrobial effect", "setting": "S. epidermidis; against Staphylococcus epidermidis, 0.2 wt.-%, 24 h", "result": "significant antimicrobial effect"}, {"measurement": "colony counts 24 h", "setting": "A. brasiliensis; 0.2 wt.-% phytantriol in 0.85 wt.-% NaCl serum with 10 wt.-% ethanol, 22° C., 24 h after contamination, 0 h count 10000, control 24 h 1000", "result": 10, "unit": "cfu/ml"}, {"measurement": "antimicrobial effect", "setting": "A. brasiliensis; against Aspergillus brasiliensis, 0.2 wt.-%, 24 h", "result": "significant antimicrobial effect"}]}]}
